Results from patent US11730817B2, “Pro-cyclic dinucleotides and pro-cyclic dinucleotide conjugates for cytokine induction” (INVIVOGEN, priority 2017, dated 2023).
Entries after “also recorded” stand apart in the source; their conditions may differ.

Tests used:
Type I IFNs = test: Whole-blood assay, type I IFN induction (HEK-Blue IFN-α/β-KO-STING readout); assay type: cell-based, human; settings: for induction of type I IFNs in whole-blood assay (comparison in words): healthy human donors, dose-response; for EC50: whole blood assay, type I IFN, read-out: EC50 (μM) IFN in WBA
Source text: Type I IFNs: HEK-Blue™ IFN-α/β-KO-STING: These cells, in which the STING gene has been inactivated, are derived from HEK293 cell line known as HEK-Blue™ IFN-α/β (InvivoGen catalog code: hkb-ifnab). HEK-Blue™ IFN-α/β cells enable detection of bioactive human type I IFNs through monitoring of activation of the […]. These cells were generated by stable transfection of HEK293 cells with the human STAT2 and IRF9 genes to obtain a fully active Type-I IFN signaling pathway. The other genes of the pathway (IFNAR1, IFNAR2, JAK1, TyK2 and STAT1) are naturally expressed in sufficient amounts. The cells were further transfected with a SEAP reporter gene under control of an IFNα/β-inducible ISG54 promoter. This promoter comprises five IFN-stimulated response elements (ISREs) fused to a minimal promoter of the human ISG54 gene, which is unresponsive to activators of the NF-κB or AP-1 pathways. Stimulation of HEK-Blue™ IFN-α/β cells with human IFN-α or IFN-β activates the JAK/STAT/ISGF3 pathway and subsequently induces production of SEAP. Production of type I IFNs in these cells is measured using QUANTI-Blue™.
Briefly, the samples were collected by venipuncture into sodium heparin tubes at the time of donation. The samples were analyzed for rhesus (Rh), blood group, hematocrit and serological status (AgHBS, HIV, HCV, HTLV, HBC, CMV, Syph). The tubes were picked up on the day of collection and subsequently tested (blood analysis, and treatment with test items) on the same day.
Each blood sample was diluted (1:2 [v/v]) in RPMI medium and aliquoted into 96-well plates (180-μL wells) containing either CDN (√10-fold serial dilution starting from 50 μM). The plates were incubated at 37° C. in a 5% CO2 incubator for 18 hours. Then, the supernatants were collected, transferred into the corresponding wells of round-bottom 96-well plates, and either stored at −80° C., or immediately tested in the appropriate reporter cell line.
A new 96-wells plate was prepared for each reporter cell lines tested, as follows: 10 μL of supernatant from the previous plate were added to the corresponding well in the new reporter cell plate. Then, a 190-μL aliquot of cells of the desired reporter cell line, previously harvested in medium containing heat-inactivated serum and counted, was added to each well (approximately 50,000 cells/well), and the plate was incubated for approximately 20 hours. The desired cytokine induction activity was determined using the QUANTI-Blue™ assay, as previously described. Briefly, 20 μL of supernatant from the previously incubated plate was transferred to the corresponding well of a new 96-well plate in which 180 μL of QUANTI-Blue™ reagent had previously been added.

STING = STING (Homo sapiens, UniProt Q86WV6, G230A/H232R/R293Q/R71H); test: ISG54 (IRF pathway) reporter assay in THP1-Dual cells; settings: for EC50 rank order (lipid chain length): FIG. 6, human or murine reporter cell
Chain of STING (Q86WV6 whole entry R71H/G230A/H232R/R293Q): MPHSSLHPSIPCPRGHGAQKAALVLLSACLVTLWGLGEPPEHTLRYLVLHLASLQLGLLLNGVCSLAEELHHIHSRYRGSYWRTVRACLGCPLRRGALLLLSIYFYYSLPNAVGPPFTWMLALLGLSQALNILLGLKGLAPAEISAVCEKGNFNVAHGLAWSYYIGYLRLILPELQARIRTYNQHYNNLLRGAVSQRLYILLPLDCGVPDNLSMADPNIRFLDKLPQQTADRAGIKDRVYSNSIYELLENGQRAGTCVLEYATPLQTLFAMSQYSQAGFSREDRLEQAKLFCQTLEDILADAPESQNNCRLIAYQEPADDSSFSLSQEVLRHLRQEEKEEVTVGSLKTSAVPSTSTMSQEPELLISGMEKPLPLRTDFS

[1] = Lipid-based nanoparticle formation (PdI, Z Ave); assay type: physicochemical; settings: for Z Ave (nm): lipid BAM-CDN particles; for PdI: polydispersity index of lipid BAM-CDN

Row | Compound | Fold ISG induction vs unstimulated @10 μM (STING; THP1-Dual cells) | EC50 (Type I IFNs) | Z Ave (nm) [1] | PdI [1] | other results
1 | Nc1ncnc2c1ncn2[C@@H]1O[C@@H]2COP(=O)(S)O[C@H]3C[C@H](n4cnc5c(=O)[nH]cnc54)O[C@@H]3COP(=O)(S)O[C@H]2[C@H]1F (some centres unmarked) [CL702, reference compound] | – | – | – | – | induction of type I IFNs in whole-blood assay (comparison in words) (Type I IFNs): superior induction of type I interferons compared to the reference compound 2′3′-cGAMP
2 | CC(C)[C@H](NC(=O)OC(C)(C)C)C(=O)N[C@@H](CCCNC(N)=O)C(=O)Nc1ccc(CSP2(=O)OC[C@H]3O[C@@H](n4cnc5c(=O)[nH]cnc54)C[C@@H]3OP(=O)(SCc3ccc(NC(=O)[C@H](CCCNC(N)=O)NC(=O)[C@@H](NC(=O)OC(C)(C)C)C(C)C)cc3)OC[C@H]3O[C@@H](n4cnc5c(N)ncnc54)[C@H](F)[C@@H]3O2)cc1 (some centres unmarked) [CL793] | – | – | – | – | induction of type I IFNs in whole-blood assay (comparison in words) (Type I IFNs): superior induction of type I interferons compared to the reference compound 2′3′-cGAMP
3 | Nc1ncnc2c1ncn2[C@@H]1O[C@@H]2COP(=O)(S)O[C@H]3C[C@H](n4cnc5c(=O)[nH]cnc54)O[C@@H]3COP(=O)(O)O[C@H]2[C@H]1F (some centres unmarked) [CL797, reference compound] | 181 fold | – | – | – | EC50 (STING): 8.15 µM
4 | CC(C)[C@H](N)C(=O)N[C@@H](C)C(=O)Nc1ccc(CSP2(=O)OC[C@H]3O[C@@H](n4cnc5c(N)ncnc54)[C@H](F)[C@@H]3OP(=O)(O)OC[C@H]3O[C@@H](n4cnc5c(O)ncnc54)C[C@@H]3O2)cc1 (some centres unmarked) [CL819] | – | – | – | – | EC50 rank order (lipid chain length) (STING): EC50 (CL819=C2-CL797)=EC50 (CL797)
5 | CCCC(=O)N[C@H](C(=O)N[C@@H](C)C(=O)Nc1ccc(CSP2(=O)OC[C@H]3O[C@@H](n4cnc5c(N)ncnc54)[C@H](F)[C@@H]3OP(=O)(O)OC[C@H]3O[C@@H](n4cnc5c(O)ncnc54)C[C@@H]3O2)cc1)C(C)C (some centres unmarked) [CL820] | – | – | – | – | EC50 rank order (lipid chain length) (STING): EC50 (CL820=C4-CL797)=EC50 (CL819=C2-CL797)=EC50 (CL797)
6 | CCCCCCCC(=O)N[C@H](C(=O)N[C@@H](C)C(=O)Nc1ccc(CSP2(=O)OC[C@H]3O[C@@H](n4cnc5c(N)ncnc54)[C@H](F)[C@@H]3OP(=O)(O)OC[C@H]3O[C@@H](n4cnc5c(O)ncnc54)C[C@@H]3O2)cc1)C(C)C (some centres unmarked) [CL821] | – | 7.1 µM | 54.9 nm | 0.27 | EC50 rank order (lipid chain length) (STING): EC50 (CL821=C8-CL797)<EC50 (CL820=C4-CL797)
7 | CC(C)[C@H](NC(=O)COCCOCCNC(=O)COCCOCCNC(=O)COCCOCCNC(=O)COCCOCCN)C(=O)N[C@H](C)C(=O)Nc1ccc(CSP2(=O)OC[C@H]3O[C@@H](n4cnc5c(N)ncnc54)[C@H](F)[C@@H]3OP(=O)(O)OC[C@H]3O[C@@H](n4cnc5c(O)ncnc54)C[C@@H]3O2)cc1 (some centres unmarked) [CL822] | 29 fold | – | – | – | –
8 | COC(=O)C1O[C@@H](Oc2ccc(CSP3(=O)OC[C@H]4O[C@@H](n5cnc6c(N)ncnc65)[C@H](F)[C@@H]4OP(=O)(O)OC[C@H]4O[C@@H](n5cnc6c(O)ncnc65)C[C@@H]4O3)cc2[N+](=O)[O-])C(OC(C)=O)C(OC(C)=O)[C@@H]1OC(C)=O (some centres unmarked) [CL831] | 6 fold | – | – | – | –
9 | CCCCCCCCCCCCCC(=O)OC(CCCCCCCCCCC)CC(=O)N[C@H](C(=O)N[C@@H](C)C(=O)Nc1ccc(CSP2(=O)OC[C@H]3O[C@@H](n4cnc5c(N)ncnc54)[C@H](F)[C@@H]3OP(=O)(O)OC[C@H]3O[C@@H](n4cnc5c(O)ncnc54)C[C@@H]3O2)cc1)C(C)C (some centres unmarked) [CL838] | – | 0.009 µM | 91 nm | 0.214 | self-organization in lipid-based nanoparticles / particle size [1]: can self-organize/assemble in lipid-based nanoparticles
10 | CCCCCCCC(=O)N[C@H](C(=O)N[C@@H](C)C(=O)Nc1ccc(CSP2(=O)OC[C@H]3O[C@@H](n4cnc5c(N)ncnc54)[C@H](F)[C@@H]3OP(=O)(S)OC[C@H]3O[C@@H](n4cnc5c(O)ncnc54)[C@H](F)[C@@H]3O2)cc1)C(C)C (some centres unmarked) [CL840] | – | 0.13 µM | 168.9 nm | 0.08 | –
11 | CCCCCCCC(=O)N[C@H](C(=O)N[C@@H](C)C(=O)Nc1ccc(CSP2(=O)OC[C@H]3O[C@@H](n4cnc5c(N)ncnc54)[C@H](F)[C@@H]3OP(=O)(O)OC[C@H]3O[C@@H](n4cnc5c(O)ncnc54)[C@H](F)[C@@H]3O2)cc1)C(C)C (some centres unmarked) [CL841] | – | 3.03 µM | 264.3 nm | 0.475 | –
12 | CCCCCCCC(=O)N[C@H](C(=O)N[C@@H](C)C(=O)Nc1ccc(CSP2(=O)OC[C@H]3O[C@@H](n4cnc5c(O)ncnc54)[C@H](F)[C@@H]3OP(=O)(SCc3ccc(NC(=O)[C@H](C)NC(=O)[C@@H](NC(=O)CCCCCCC)C(C)C)cc3)OC[C@H]3O[C@@H](n4cnc5c(N)ncnc54)[C@H](F)[C@@H]3O2)cc1)C(C)C (some centres unmarked) [CL842] | – | 1.4 µM | 184 nm | 0.086 | self-organization in lipid-based nanoparticles / particle size [1]: can self-organize/assemble in lipid-based nanoparticles
13 | CC(C)[C@H](NC(=O)CCCCCN1C(=O)C=CC1=O)C(=O)N[C@@H](C)C(=O)Nc1ccc(CSP2(=O)OC[C@H]3O[C@@H](n4cnc5c(N)ncnc54)[C@H](F)[C@@H]3OP(=O)(O)OC[C@H]3O[C@@H](n4cnc5c(O)ncnc54)C[C@@H]3O2)cc1 (some centres unmarked) [CL843] | 16 fold | – | – | – | –
14 | Nc1ncnc2c1ncn2[C@@H]1OC2COP(=O)(S)O[C@@H]3C(COP(=O)(O)O[C@H]2[C@H]1F)O[C@@H](n1cnc2c(=O)[nH]cnc21)[C@@H]3F (some centres unmarked) [CL845, reference compound] | 227 fold | – | – | – | EC50 (STING): 4.57 µM
15 | COC(=O)C1O[C@@H](Oc2ccc(CSP3(=O)OC[C@H]4O[C@@H](n5cnc6c(=O)[nH]cnc65)[C@H](F)[C@@H]4OP(=O)(O)OC[C@H]4O[C@@H](n5cnc6c(N)ncnc65)[C@H](F)[C@@H]4O3)cc2NC(=O)CCCCCN2C(=O)C=CC2=O)C(OC(C)=O)C(OC(C)=O)[C@@H]1OC(C)=O (some centres unmarked) [CL847] | 132 fold | – | – | – | –
16 | CCCCCCCCCCCCCC(=O)OC(CCCCCCCCCCC)CC(=O)N[C@H](C(=O)N[C@@H](CCCNC(N)=O)C(=O)Nc1ccc(CSP2(=O)OC[C@H]3O[C@@H](n4cnc5c(N)ncnc54)[C@H](F)[C@@H]3OP(=O)(O)OC[C@H]3O[C@@H](n4cnc5c(O)ncnc54)[C@H](F)[C@@H]3O2)cc1)C(C)C (some centres unmarked) [CL860] | – | 0.009 µM | 33 nm | 0.248 | self-organization in lipid-based nanoparticles / particle size [1]: can self-organize/assemble in lipid-based nanoparticles; also recorded: the size tends to be smaller, around the size of Small Unilamellar Vesicle
17 | CCCCCCCCCCCCCC(=O)OC(CCCCCCCCCCC)CC(=O)N[C@H](C(=O)N[C@@H](CCCNC(N)=O)C(=O)Nc1ccc(CSP2(=O)OC[C@H]3O[C@@H](n4cnc5c(N)ncnc54)[C@H](F)[C@@H]3OP(=O)(S)OC[C@H]3O[C@@H](n4cnc5c(O)ncnc54)[C@H](F)[C@@H]3O2)cc1)C(C)C (some centres unmarked) [CL861] | – | 0.01 µM | 36.8 nm | 0.183 | self-organization in lipid-based nanoparticles / particle size [1]: can self-organize/assemble in lipid-based nanoparticles; also recorded: the size tends to be smaller, around the size of Small Unilamellar Vesicle
18 | CC(C)[C@H](NC(=O)[C@@H](CN)N1C(=O)C=CC1=O)C(=O)N[C@@H](C)C(=O)Nc1ccc(CSP2(=O)OC[C@H]3O[C@@H](n4cnc5c(N)ncnc54)[C@H](F)[C@@H]3OP(=O)(S)OC[C@H]3O[C@@H](n4cnc5c(O)ncnc54)[C@H](F)[C@@H]3O2)cc1 (some centres unmarked) [CL874] | 156 fold | – | – | – | % activity (vs cGAMP) (STING): 297%; ISG activity (STING; THP1-Dual cells): retains full 15G activity
